# Measured values taken from publication doi:10.1101/2023.11.24.568596v1 (biorxiv, 2023).
# Columns and labels:
# Conditions in all cases: binder
# LOK = LOK (Homo sapiens, UniProt O94804)
# EphB3 = target: T1, EphB3 (Homo sapiens, UniProt P54753)
# T1 sequence (P54753 1-998): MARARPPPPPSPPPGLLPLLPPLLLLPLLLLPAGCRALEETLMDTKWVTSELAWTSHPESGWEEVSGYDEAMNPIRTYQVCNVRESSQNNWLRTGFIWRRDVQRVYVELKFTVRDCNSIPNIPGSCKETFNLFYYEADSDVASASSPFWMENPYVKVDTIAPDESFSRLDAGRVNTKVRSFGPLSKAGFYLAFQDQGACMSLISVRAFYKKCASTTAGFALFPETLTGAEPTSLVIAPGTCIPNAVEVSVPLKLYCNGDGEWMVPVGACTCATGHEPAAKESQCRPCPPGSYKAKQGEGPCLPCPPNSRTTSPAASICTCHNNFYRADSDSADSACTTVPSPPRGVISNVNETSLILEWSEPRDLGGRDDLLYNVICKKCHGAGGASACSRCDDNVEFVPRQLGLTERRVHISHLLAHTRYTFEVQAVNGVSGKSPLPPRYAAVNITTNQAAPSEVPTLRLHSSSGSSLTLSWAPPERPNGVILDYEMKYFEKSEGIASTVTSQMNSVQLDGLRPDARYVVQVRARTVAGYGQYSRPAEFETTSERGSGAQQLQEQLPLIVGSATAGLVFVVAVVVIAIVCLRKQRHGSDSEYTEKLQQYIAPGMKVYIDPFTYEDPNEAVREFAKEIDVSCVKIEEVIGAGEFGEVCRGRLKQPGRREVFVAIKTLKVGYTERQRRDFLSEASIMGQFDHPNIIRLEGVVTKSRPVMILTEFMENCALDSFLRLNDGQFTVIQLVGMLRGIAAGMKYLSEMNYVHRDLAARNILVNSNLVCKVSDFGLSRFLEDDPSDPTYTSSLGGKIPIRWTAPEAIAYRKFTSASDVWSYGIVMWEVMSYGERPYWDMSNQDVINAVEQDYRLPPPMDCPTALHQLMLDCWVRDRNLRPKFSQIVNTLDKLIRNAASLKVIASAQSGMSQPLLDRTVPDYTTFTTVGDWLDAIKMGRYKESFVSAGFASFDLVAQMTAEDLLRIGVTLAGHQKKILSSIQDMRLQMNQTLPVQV
# DRAK1 = target: T2, DRAK1 (Homo sapiens, UniProt Q9UEE5)
# T2 sequence (Q9UEE5 1-414): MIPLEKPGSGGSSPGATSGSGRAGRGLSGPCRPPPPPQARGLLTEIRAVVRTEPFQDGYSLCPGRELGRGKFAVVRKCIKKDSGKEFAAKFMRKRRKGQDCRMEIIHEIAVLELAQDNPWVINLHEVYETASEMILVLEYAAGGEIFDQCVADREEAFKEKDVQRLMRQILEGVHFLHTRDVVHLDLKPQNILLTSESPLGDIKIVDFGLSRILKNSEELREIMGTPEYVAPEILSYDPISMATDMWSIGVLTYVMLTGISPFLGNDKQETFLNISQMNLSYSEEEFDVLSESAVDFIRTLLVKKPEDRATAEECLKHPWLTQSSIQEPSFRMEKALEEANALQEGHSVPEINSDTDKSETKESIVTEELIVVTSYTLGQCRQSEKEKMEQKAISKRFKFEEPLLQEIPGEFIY
# FGFR1 = FGFR1 (Homo sapiens, UniProt P11362)
# PIM1 = PIM1 (Homo sapiens, UniProt P11309)
# ABL1 = ABL1 (Homo sapiens, UniProt P00519)
# CASK = target: T3, CASK (Homo sapiens, UniProt O14936)
# T3 sequence (O14936 1-926): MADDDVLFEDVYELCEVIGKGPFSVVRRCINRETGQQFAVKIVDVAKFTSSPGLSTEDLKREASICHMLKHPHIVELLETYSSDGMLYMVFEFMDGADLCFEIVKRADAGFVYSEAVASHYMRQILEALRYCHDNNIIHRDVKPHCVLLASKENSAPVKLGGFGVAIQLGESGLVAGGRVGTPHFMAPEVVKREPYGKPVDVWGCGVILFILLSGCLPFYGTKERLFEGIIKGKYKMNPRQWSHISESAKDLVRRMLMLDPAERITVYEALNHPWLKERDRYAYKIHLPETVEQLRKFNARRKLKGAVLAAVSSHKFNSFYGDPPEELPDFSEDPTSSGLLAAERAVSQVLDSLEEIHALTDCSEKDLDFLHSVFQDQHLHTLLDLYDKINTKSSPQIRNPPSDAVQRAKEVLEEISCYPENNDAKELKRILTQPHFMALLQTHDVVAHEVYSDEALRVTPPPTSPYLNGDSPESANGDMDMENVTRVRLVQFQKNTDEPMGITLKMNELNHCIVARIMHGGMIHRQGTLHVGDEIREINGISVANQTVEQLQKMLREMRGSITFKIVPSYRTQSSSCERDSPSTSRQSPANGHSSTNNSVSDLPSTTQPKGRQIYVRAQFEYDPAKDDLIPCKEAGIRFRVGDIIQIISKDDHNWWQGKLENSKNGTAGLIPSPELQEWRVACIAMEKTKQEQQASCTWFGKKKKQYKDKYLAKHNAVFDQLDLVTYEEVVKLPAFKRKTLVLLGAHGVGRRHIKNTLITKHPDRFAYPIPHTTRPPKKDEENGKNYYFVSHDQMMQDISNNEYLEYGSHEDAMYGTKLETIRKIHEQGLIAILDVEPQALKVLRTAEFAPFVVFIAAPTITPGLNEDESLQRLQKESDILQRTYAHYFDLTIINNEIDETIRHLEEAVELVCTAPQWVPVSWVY
# BRD4 = BRD4 (Homo sapiens, UniProt O60885)
# MSK1b = MSK1b (Homo sapiens, UniProt O75582)
# Chain of MSK1b (O75582 whole entry): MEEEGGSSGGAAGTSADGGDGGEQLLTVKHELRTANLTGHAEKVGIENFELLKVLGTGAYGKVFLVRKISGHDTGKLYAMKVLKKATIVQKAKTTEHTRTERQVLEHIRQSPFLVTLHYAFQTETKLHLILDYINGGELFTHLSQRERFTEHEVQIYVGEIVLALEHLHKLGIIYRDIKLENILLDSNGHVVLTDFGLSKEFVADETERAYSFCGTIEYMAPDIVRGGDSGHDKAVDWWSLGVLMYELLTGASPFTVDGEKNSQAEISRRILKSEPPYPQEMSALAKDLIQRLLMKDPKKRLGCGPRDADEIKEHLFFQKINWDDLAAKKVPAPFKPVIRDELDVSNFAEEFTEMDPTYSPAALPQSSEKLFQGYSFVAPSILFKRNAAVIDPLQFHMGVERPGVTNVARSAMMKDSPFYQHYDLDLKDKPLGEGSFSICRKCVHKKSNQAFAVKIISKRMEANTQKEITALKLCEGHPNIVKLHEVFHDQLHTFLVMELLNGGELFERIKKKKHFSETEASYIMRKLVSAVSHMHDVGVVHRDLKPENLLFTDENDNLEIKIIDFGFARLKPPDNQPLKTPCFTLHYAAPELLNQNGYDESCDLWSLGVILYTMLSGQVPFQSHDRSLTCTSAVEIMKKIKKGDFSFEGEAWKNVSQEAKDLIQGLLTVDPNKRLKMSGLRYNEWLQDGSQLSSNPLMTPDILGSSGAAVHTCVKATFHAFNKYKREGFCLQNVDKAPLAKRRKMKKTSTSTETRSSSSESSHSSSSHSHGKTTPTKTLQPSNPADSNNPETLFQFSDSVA
# Chain of LOK (O94804 whole entry): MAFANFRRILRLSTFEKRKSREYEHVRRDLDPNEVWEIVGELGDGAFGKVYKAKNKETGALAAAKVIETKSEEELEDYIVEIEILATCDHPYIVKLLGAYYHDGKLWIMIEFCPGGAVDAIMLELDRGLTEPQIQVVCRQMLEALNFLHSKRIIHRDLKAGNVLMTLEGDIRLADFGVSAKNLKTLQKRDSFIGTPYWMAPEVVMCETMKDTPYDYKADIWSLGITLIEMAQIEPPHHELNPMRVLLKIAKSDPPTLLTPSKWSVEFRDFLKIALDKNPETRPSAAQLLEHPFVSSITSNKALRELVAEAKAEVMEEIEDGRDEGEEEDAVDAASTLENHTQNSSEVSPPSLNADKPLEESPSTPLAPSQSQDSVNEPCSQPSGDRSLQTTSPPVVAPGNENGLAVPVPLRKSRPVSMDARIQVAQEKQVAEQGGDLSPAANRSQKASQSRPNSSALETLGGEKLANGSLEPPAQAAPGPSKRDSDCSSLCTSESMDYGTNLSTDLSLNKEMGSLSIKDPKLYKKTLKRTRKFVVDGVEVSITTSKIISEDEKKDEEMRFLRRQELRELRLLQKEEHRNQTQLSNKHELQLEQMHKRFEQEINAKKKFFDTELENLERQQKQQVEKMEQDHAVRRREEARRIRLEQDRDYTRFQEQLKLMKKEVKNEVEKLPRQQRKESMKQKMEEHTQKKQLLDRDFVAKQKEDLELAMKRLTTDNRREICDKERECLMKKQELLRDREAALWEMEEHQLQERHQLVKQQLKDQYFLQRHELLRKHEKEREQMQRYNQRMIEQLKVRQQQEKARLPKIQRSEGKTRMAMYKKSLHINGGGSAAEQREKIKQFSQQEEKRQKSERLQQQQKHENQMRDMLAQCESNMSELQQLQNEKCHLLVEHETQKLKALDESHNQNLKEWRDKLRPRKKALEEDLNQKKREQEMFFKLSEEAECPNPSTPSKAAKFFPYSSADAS
# Chain of ABL1 (P00519 whole entry): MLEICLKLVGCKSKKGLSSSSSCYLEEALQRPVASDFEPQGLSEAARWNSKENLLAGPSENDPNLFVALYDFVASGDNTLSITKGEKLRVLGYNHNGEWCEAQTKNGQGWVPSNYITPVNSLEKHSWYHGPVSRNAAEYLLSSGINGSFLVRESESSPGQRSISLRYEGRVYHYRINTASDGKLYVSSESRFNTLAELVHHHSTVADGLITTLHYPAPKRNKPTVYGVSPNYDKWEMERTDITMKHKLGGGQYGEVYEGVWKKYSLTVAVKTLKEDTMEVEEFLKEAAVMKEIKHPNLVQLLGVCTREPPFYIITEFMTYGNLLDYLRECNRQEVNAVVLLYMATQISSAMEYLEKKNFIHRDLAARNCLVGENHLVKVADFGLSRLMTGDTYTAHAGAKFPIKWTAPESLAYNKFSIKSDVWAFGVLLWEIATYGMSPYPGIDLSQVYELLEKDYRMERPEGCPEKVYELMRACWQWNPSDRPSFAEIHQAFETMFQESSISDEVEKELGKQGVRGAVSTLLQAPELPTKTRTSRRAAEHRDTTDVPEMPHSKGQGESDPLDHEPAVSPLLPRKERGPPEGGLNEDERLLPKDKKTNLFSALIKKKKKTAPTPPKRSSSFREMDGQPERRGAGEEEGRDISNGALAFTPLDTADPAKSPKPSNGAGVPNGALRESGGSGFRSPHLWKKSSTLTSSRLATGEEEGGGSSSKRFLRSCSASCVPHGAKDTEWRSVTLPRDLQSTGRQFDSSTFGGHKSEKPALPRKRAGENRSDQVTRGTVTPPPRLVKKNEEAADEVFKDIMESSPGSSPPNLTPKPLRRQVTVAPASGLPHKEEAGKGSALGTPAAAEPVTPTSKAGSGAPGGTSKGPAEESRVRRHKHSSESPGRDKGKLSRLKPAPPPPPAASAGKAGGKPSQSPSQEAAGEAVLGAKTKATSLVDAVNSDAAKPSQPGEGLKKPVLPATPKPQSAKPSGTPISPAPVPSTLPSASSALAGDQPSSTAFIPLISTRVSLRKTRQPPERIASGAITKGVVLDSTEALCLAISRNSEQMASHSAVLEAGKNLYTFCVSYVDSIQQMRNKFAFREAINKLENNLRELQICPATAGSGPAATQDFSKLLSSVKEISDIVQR
# Chain of PIM1 (P11309 whole entry): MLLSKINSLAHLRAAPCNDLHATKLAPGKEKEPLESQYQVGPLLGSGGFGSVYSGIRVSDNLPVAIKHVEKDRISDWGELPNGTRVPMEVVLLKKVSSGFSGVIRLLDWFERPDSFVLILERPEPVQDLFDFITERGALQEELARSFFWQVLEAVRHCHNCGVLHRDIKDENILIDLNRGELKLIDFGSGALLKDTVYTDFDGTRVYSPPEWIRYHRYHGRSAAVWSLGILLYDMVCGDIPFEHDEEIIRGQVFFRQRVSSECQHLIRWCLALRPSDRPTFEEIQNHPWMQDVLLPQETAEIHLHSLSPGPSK
# Chain of FGFR1 (P11362 whole entry): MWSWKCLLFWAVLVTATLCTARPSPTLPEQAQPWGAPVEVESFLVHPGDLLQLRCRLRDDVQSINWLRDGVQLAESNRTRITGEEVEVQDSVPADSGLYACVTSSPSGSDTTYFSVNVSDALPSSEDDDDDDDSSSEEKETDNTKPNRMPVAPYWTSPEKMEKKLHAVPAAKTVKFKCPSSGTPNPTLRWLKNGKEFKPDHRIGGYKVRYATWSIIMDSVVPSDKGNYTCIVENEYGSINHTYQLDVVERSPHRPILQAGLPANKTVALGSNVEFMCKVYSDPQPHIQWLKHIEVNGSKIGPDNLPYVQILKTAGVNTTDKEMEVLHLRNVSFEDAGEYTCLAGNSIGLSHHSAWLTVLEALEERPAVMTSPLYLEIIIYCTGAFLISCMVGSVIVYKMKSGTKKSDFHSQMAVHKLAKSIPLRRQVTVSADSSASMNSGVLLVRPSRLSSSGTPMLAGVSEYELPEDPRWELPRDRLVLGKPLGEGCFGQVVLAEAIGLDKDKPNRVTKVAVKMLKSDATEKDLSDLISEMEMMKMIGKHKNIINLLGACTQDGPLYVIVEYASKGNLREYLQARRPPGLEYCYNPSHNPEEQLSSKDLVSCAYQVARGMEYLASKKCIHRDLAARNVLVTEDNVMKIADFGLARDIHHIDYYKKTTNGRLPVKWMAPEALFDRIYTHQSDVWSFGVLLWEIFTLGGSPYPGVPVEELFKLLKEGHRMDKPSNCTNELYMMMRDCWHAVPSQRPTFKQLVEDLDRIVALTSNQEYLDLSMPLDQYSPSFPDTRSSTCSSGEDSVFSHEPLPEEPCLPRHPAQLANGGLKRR
smiles,measurement,setting,value
"CNc1ncc2cc(-c3ccc(-c4cccc(C)n4)cc3Cl)c(=O)n(CCCCN)c2n1 [compound 20, MRLW5]",ΔTm MRLW5 (20),LOK,12.5 °C
same,ΔTm MRLW5 (20),EphB3,2.5 °C
same,ΔTm MRLW5 (20),DRAK1,-0.5 °C
same,ΔTm MRLW5 (20),FGFR1,0.4 °C
same,ΔTm MRLW5 (20),PIM1,-0.1 °C
same,ΔTm MRLW5 (20),ABL1,4.9 °C
same,ΔTm MRLW5 (20),CASK,-0.5 °C
same,ΔTm MRLW5 (20),BRD4,-0.7 °C
same,ΔTm MRLW5 (20),MSK1b,2.9 °C
"CNc1ncc2cc(-c3ccc(-c4cccc(C)n4)cc3Cl)c(=O)n(CCC3CCNCC3)c2n1 [compound 22, 6-(2-Chloro-4-(6-methylpyridin-2-yl)phenyl)-2-(methylamino)-8-(2-(piperidin-4-yl)ethyl)pyrido[2,3-d]pyrimidin-7(8H)-one]",ΔTm 22,LOK,11.4 °C
same,ΔTm 22,EphB3,2.6 °C
same,ΔTm 22,DRAK1,-1.3 °C
same,ΔTm 22,FGFR1,1.1 °C
same,ΔTm 22,PIM1,-0.4 °C
same,ΔTm 22,ABL1,4.9 °C
same,ΔTm 22,CASK,0.3 °C
same,ΔTm 22,BRD4,0.0 °C
same,ΔTm 22,MSK1b,0.1 °C
"CNc1ncc2cc(-c3ccc(-c4cccc(C)n4)cc3Cl)c(=O)n(C[C@H]3CC[C@H](N)CC3)c2n1 [compound 23, 23]",ΔTm 23,LOK,13.0 °C
same,ΔTm 23,EphB3,3.6 °C
same,ΔTm 23,DRAK1,-1.0 °C
same,ΔTm 23,FGFR1,0.7 °C
same,ΔTm 23,PIM1,-0.7 °C
same,ΔTm 23,ABL1,7.9 °C
same,ΔTm 23,CASK,-0.4 °C
same,ΔTm 23,BRD4,-1.1 °C
same,ΔTm 23,MSK1b,6.4 °C
"Cc1cccc(-c2ccc(-c3cc4cnc(NC(CO)CO)nc4n(CCCCN)c3=O)c(Cl)c2)n1 [compound 24, 8-(4-Aminobutyl)-6-(2-chloro-4-(6-methylpyridin-2-yl)phenyl)-2-((1,3-dihydroxypropan-2-yl)amino)pyrido[2,3-d]pyrimidin-7(8H)-one]",ΔTm MR24 (24),LOK,-0.6 °C
same,ΔTm MR24 (24),EphB3,0.2 °C
same,ΔTm MR24 (24),DRAK1,0.0 °C
same,ΔTm MR24 (24),FGFR1,0.4 °C
same,ΔTm MR24 (24),PIM1,0.5 °C
same,ΔTm MR24 (24),ABL1,1.4 °C
same,ΔTm MR24 (24),CASK,-0.4 °C
same,ΔTm MR24 (24),BRD4,-1.7 °C
same,ΔTm MR24 (24),MSK1b,-1.0 °C
"Cc1cccc(-c2ccc(-c3cc4cnc(NCCCc5ccc(N)cc5)nc4n(CCCCN)c3=O)c(Cl)c2)n1 [compound 25, 8-(4-Aminobutyl)-2-((3-(4-aminophenyl)propyl)amino)-6-(2-chloro-4-(6-methylpyridin-2-yl)phenyl)pyrido[2,3-d]pyrimidin-7(8H)-one]",ΔTm 25,LOK,-0.7 °C
same,ΔTm 25,EphB3,2.8 °C
same,ΔTm 25,DRAK1,0.9 °C
same,ΔTm 25,FGFR1,-0.4 °C
same,ΔTm 25,PIM1,0.3 °C
same,ΔTm 25,ABL1,3.9 °C
same,ΔTm 25,CASK,-0.4 °C
same,ΔTm 25,BRD4,-2.9 °C
same,ΔTm 25,MSK1b,1.4 °C
"Cc1cccc(-c2ccc(-c3cc4cnc(NCCCN5CCOCC5)nc4n(CCCCN)c3=O)c(Cl)c2)n1 [compound 26, MR26]",ΔTm MR26 (26),LOK,-0.4 °C
same,ΔTm MR26 (26),EphB3,2.4 °C
same,ΔTm MR26 (26),DRAK1,0.2 °C
same,ΔTm MR26 (26),FGFR1,0.3 °C
same,ΔTm MR26 (26),PIM1,0.3 °C
same,ΔTm MR26 (26),ABL1,2.9 °C
same,ΔTm MR26 (26),CASK,-0.3 °C
same,ΔTm MR26 (26),BRD4,-1.2 °C
same,ΔTm MR26 (26),MSK1b,-0.4 °C
